Tests used:
Test in all cases: radiometric filter-binding kinase assay, Kinase HotSpot
Settings in all cases: compound 0.5 µM; ATP 10 µM
AKT3 (human) = AKT3 (human) (UniProt Q9Y243)
CAMK2A (human) = CAMK2A (human) (UniProt Q9UQM7)
CAMK2B (human) = CAMK2B (human) (UniProt Q13554)
CAMK2D (human) = CAMK2D (human) (UniProt Q13557)
CAMK4 (human) = CAMK4 (human) (UniProt Q16566)
CDK4 CCND1 (human) = CDK4 CCND1 (human) (UniProt P24385+P11802)
CDK5 CDK5R1 p25 (human) = CDK5 CDK5R1 p25 (human) (UniProt Q00535+Q15078)
CDK5 CDK5R1 p35 (human) = CDK5 CDK5R1 p35 (human) (UniProt Q00535+Q15078)
CDK9 CCNK (human) = CDK9 CCNK (human) (UniProt O75909+P50750)
CLK3 (human) = CLK3 (human) (UniProt P49761)
DAPK3 (human) = DAPK3 (human) (UniProt O43293)
DCLK2 (human) = DCLK2 (human) (UniProt Q8N568)
EPHB3 (human) = EPHB3 (human) (UniProt P54753)
FYN (human) = FYN (human) (UniProt P06241)
HIPK2 (human) = HIPK2 (human) (UniProt Q9H2X6)
INSR (human) = INSR (human) (UniProt P06213)
IRAK4 (human) = IRAK4 (human) (UniProt Q9NWZ3)
[1] = target: JAK1 JH1 catalytic (human) (UniProt P23458)
KDR (human) = KDR (human) (UniProt P35968)
MAP4K4 (human) = MAP4K4 (human) (UniProt O95819)
MST1R (human) = MST1R (human) (UniProt Q04912)
PAK3 (human) = PAK3 (human) (UniProt O75914)
PASK (human) = PASK (human) (UniProt Q96RG2)
PDGFRB (human) = PDGFRB (human) (UniProt P09619)
PRKCA (human) = PRKCA (human) (UniProt P17252)
PRKCE (human) = PRKCE (human) (UniProt Q02156)
PTK2 (human) = PTK2 (human) (UniProt Q05397)
PTK2B (human) = PTK2B (human) (UniProt Q14289)
ROS1 (human) = ROS1 (human) (UniProt P08922)
RPS6KA1 KD1 KD2 (human) = RPS6KA1 KD1 KD2 (human) (UniProt Q15418)
SRMS (human) = SRMS (human) (UniProt Q9H3Y6)
STK16 (human) = STK16 (human) (UniProt O75716)
STK17A (human) = STK17A (human) (UniProt Q9UEE5)
TAOK1 (human) = TAOK1 (human) (UniProt Q7L7X3)
TBK1 (human) = TBK1 (human) (UniProt Q9UHD2)
TEC (human) = TEC (human) (UniProt P42680)
TNK2 (human) = TNK2 (human) (UniProt Q07912)
TTK (human) = TTK (human) (UniProt P33981)
ULK1 (human) = ULK1 (human) (UniProt O75385)
ZAP70 (human) = ZAP70 (human) (UniProt P43403)
CHUK (human) = CHUK (human) (UniProt O15111)
PRKCB1 (human) = PRKCB1 (human) (UniProt P05771)

Sequence of CAMK2B (human) (Q13554 whole entry, looked up): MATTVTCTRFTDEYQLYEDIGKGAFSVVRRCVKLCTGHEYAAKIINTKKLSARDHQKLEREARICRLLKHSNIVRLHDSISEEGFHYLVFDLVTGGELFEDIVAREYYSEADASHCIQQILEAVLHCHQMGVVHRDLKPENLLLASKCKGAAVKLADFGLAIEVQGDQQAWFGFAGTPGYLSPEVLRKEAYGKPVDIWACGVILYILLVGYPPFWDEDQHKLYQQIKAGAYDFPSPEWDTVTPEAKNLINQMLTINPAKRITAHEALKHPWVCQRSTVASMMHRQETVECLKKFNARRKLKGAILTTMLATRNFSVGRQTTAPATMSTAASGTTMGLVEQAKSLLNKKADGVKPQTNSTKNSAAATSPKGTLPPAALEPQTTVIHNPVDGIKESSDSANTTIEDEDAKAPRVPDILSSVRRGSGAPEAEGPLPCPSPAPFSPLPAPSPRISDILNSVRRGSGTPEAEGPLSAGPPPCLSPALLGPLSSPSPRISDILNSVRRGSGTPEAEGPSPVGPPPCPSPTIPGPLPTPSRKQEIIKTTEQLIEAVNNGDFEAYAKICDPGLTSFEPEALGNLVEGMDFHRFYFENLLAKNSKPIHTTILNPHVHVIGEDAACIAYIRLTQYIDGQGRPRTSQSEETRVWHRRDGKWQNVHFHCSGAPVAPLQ
Sequence of CDK9 CCNK (human) (O75909 whole entry, looked up): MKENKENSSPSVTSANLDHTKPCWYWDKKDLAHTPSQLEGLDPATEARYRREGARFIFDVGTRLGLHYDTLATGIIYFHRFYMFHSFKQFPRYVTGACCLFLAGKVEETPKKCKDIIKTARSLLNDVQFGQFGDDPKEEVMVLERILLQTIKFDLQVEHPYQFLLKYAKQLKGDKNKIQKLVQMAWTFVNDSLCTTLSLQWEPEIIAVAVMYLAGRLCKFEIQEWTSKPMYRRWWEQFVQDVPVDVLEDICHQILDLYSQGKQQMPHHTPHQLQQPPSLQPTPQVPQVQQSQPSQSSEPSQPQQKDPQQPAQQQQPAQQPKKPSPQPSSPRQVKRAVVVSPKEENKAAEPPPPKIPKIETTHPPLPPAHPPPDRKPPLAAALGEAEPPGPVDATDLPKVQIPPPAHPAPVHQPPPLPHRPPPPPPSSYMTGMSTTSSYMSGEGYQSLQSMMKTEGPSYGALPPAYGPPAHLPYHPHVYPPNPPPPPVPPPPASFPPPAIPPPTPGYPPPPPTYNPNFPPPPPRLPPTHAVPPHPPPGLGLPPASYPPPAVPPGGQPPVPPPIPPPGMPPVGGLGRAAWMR
Sequence of CDK9 CCNK (human) (P50750 whole entry, looked up): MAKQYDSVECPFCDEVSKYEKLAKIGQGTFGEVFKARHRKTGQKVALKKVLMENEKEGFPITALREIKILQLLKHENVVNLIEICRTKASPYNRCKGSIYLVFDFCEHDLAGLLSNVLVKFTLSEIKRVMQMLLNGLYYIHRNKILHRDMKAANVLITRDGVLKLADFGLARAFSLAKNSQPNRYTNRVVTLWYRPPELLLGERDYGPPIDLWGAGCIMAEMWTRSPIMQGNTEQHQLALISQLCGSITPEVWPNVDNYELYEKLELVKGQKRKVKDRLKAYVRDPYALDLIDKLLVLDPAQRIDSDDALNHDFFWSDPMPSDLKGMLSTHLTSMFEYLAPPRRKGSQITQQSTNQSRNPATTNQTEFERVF
Sequence of MAP4K4 (human) (O95819 whole entry, looked up): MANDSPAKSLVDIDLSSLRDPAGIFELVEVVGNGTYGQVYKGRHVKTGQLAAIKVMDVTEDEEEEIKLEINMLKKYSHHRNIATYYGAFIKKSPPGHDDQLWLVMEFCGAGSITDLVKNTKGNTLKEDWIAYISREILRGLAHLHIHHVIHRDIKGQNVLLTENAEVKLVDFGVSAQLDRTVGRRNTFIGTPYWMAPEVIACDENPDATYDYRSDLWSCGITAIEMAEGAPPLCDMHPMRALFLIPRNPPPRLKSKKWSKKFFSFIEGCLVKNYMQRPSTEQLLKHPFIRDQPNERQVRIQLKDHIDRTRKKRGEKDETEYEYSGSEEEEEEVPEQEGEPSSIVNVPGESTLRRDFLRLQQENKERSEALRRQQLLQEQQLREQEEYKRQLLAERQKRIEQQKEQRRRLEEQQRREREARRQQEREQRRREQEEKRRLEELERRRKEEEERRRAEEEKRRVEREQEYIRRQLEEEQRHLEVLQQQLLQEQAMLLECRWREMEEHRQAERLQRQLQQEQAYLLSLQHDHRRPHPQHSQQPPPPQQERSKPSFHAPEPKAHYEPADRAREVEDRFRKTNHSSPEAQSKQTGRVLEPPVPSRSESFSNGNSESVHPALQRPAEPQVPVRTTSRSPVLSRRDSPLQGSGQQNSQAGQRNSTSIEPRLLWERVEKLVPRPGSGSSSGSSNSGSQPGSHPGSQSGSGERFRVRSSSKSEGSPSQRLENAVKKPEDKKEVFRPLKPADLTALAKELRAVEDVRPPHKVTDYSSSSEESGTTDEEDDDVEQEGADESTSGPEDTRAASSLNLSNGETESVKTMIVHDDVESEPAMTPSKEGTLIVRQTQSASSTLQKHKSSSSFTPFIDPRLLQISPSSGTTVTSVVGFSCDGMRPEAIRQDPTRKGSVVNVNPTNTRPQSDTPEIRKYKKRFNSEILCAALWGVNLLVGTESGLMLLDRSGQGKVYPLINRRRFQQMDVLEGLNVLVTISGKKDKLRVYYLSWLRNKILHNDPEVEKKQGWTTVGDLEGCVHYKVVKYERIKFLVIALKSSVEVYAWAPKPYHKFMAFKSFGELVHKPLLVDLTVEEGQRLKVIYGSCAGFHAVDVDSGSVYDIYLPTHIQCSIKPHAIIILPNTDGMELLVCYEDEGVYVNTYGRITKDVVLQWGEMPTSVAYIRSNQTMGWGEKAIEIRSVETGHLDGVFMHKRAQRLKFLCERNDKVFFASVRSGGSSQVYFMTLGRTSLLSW
Sequence of PAK3 (human) (O75914 whole entry, looked up): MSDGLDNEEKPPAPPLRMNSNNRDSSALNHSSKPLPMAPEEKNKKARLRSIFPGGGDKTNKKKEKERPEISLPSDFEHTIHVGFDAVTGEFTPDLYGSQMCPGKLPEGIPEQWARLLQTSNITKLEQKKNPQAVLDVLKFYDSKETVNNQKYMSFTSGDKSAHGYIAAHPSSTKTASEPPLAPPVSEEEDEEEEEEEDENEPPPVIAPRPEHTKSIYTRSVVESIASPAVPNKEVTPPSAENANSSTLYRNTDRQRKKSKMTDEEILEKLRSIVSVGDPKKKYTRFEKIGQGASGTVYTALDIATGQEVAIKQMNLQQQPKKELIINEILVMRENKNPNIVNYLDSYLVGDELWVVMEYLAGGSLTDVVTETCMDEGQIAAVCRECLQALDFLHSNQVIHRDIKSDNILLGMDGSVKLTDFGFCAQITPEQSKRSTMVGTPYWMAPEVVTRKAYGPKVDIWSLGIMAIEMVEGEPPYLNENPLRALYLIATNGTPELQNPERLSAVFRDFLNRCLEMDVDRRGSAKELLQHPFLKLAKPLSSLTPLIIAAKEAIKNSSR
Sequence of STK16 (human) (O75716 whole entry, looked up): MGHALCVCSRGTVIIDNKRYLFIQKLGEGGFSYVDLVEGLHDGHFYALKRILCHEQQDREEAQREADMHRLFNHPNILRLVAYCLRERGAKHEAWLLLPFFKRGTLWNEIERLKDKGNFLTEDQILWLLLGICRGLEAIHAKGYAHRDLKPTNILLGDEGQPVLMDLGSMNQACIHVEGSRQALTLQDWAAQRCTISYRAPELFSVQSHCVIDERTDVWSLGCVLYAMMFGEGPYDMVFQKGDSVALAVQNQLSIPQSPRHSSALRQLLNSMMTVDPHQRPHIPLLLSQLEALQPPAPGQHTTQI
Sequence of DAPK3 (human) (O43293 whole entry, looked up): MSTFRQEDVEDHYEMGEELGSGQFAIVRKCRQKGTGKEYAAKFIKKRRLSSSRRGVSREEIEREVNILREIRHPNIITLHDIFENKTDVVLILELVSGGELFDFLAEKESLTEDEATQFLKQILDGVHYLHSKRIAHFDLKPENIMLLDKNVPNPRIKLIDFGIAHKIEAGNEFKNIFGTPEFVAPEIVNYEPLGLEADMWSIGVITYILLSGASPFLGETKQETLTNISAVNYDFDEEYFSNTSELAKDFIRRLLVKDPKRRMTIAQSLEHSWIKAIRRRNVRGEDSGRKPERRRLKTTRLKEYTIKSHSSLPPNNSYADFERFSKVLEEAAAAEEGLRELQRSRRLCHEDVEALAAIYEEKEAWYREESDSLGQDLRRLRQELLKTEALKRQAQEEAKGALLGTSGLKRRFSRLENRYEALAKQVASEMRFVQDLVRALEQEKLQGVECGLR

`O=C1NC(=O)C(c2cn(CCCO)c3ncccc23)=C1c1cnccn1` was tested, and the residual activity (AKT3 (human)) was 101%, the residual activity (CAMK2A (human)) was 108% and the residual activity (CAMK2B (human)) was 97.6%. The residual activity (CAMK2D (human)) was 101%, the residual activity (CAMK4 (human)) was 95.6% and the residual activity (CDK4 CCND1 (human)) was 89.5%. For the same compound, the residual activity (CDK5 CDK5R1 p25 (human)) was 103%, the residual activity (CDK5 CDK5R1 p35 (human)) was 73.9% and the residual activity (CDK9 CCNK (human)) was 89.5%. The residual activity (CLK3 (human)) was 67.8%, the residual activity (DAPK3 (human)) was 80.2% and the residual activity (DCLK2 (human)) was 90.1%. The residual activity (EPHB3 (human)) was 86.6%, the residual activity (FYN (human)) was 107% and the residual activity (HIPK2 (human)) was 96.6%. For the same compound, the residual activity (INSR (human)) was 92.9%, the residual activity (IRAK4 (human)) was 129% and the residual activity [1] was 117%. The residual activity (KDR (human)) was 82.1%, the residual activity (MAP4K4 (human)) was 36.4% and the residual activity (MST1R (human)) was 96.1%. The residual activity (PAK3 (human)) was 92.9%, the residual activity (PASK (human)) was 97.1% and the residual activity (PDGFRB (human)) was 102%. It also gave a residual activity (PRKCA (human)) of 91.1%, a residual activity (PRKCE (human)) of 102% and a residual activity (PTK2 (human)) of 101%. The residual activity (PTK2B (human)) was 94%, the residual activity (ROS1 (human)) was 106% and the residual activity (RPS6KA1 KD1 KD2 (human)) was 94.8%. It also gave a residual activity (SRMS (human)) of 95.9%, a residual activity (STK16 (human)) of 90.3% and a residual activity (STK17A (human)) of 93.6%. For the same compound, the residual activity (TAOK1 (human)) was 132%, the residual activity (TBK1 (human)) was 98.8% and the residual activity (TEC (human)) was 120%. For the same compound, the residual activity (TNK2 (human)) was 90.7%, the residual activity (TTK (human)) was 94.5% and the residual activity (ULK1 (human)) was 102%. For the same compound, the residual activity (ZAP70 (human)) was 87.8%.
For `COc1cc2ncnc(N3CCN(C(=O)Nc4ccc(Oc5ccccc5)cc4)CC3)c2cc1OC`, the residual activity (AKT3 (human)) was 97.5%, the residual activity (CAMK2A (human)) was 89.9% and the residual activity (CAMK2B (human)) was 96.3%. For the same compound, the residual activity (CAMK2D (human)) was 70.9%, the residual activity (CAMK4 (human)) was 102% and the residual activity (CDK4 CCND1 (human)) was 101%. It also gave a residual activity (CDK5 CDK5R1 p25 (human)) of 77.1%, a residual activity (CDK5 CDK5R1 p35 (human)) of 99.8% and a residual activity (CDK9 CCNK (human)) of 83.6%. The residual activity (CHUK (human)) was 96%, the residual activity (CLK3 (human)) was 88.9% and the residual activity (DAPK3 (human)) was 101%. For the same compound, the residual activity (DCLK2 (human)) was 90.6%, the residual activity (EPHB3 (human)) was 89.6% and the residual activity (FYN (human)) was 112%. For the same compound, the residual activity (HIPK2 (human)) was 82.8%, the residual activity (INSR (human)) was 98.2% and the residual activity (IRAK4 (human)) was 83.5%. For the same compound, the residual activity [1] was 96.5%, the residual activity (KDR (human)) was 82.7% and the residual activity (MAP4K4 (human)) was 88.4%. It also gave a residual activity (MST1R (human)) of 90.3%, a residual activity (PAK3 (human)) of 98.1% and a residual activity (PASK (human)) of 97.7%. For the same compound, the residual activity (PRKCA (human)) was 98%, the residual activity (PRKCB1 (human)) was 94.5% and the residual activity (PRKCE (human)) was 106%. For the same compound, the residual activity (PTK2 (human)) was 89.4%, the residual activity (PTK2B (human)) was 91.2% and the residual activity (ROS1 (human)) was 89.7%. The residual activity (RPS6KA1 KD1 KD2 (human)) was 82%, the residual activity (SRMS (human)) was 93.6% and the residual activity (STK16 (human)) was 94.2%. It also gave a residual activity (STK17A (human)) of 85.5%, a residual activity (TAOK1 (human)) of 81.6% and a residual activity (TBK1 (human)) of 96.3%. The residual activity (TEC (human)) was 101%, the residual activity (TNK2 (human)) was 77.1% and the residual activity (TTK (human)) was 98.3%. The residual activity (ULK1 (human)) was 110% and the residual activity (ZAP70 (human)) was 100%.
`O=C1Nc2ccccc2/C1=C1/Nc2ccccc2/C1=N\OCCC(O)CO` (configuration not stated) was tested, and the residual activity (AKT3 (human)) was 92.9%, the residual activity (CAMK2A (human)) was 12.2% and the residual activity (CAMK2B (human)) was 57.9%. It also gave a residual activity (CAMK2D (human)) of 29.1%, a residual activity (CAMK4 (human)) of 93.6% and a residual activity (CDK4 CCND1 (human)) of 96.4%. For the same compound, the residual activity (CDK5 CDK5R1 p25 (human)) was 16.4%, the residual activity (CDK5 CDK5R1 p35 (human)) was 14.3% and the residual activity (CDK9 CCNK (human)) was 33.2%. For the same compound, the residual activity (CHUK (human)) was 96.6%, the residual activity (CLK3 (human)) was 16.1% and the residual activity (DAPK3 (human)) was 66.6%. It also gave a residual activity (DCLK2 (human)) of 86.4%, a residual activity (FYN (human)) of 13% and a residual activity (HIPK2 (human)) of 97.6%. It also gave a residual activity (INSR (human)) of 44.9%, a residual activity (IRAK4 (human)) of 60.3% and a residual activity [1] of 25.9%. For the same compound, the residual activity (KDR (human)) was 56.4%, the residual activity (MAP4K4 (human)) was 11.6% and the residual activity (MST1R (human)) was 101%. It also gave a residual activity (PAK3 (human)) of 73.8%, a residual activity (PASK (human)) of 89.8% and a residual activity (PDGFRB (human)) of 42.8%. It also gave a residual activity (PRKCA (human)) of 101%, a residual activity (PRKCB1 (human)) of 93.6% and a residual activity (PRKCE (human)) of 92.2%. It also gave a residual activity (PTK2 (human)) of 35%, a residual activity (PTK2B (human)) of 30.5% and a residual activity (ROS1 (human)) of 27%. It also gave a residual activity (RPS6KA1 KD1 KD2 (human)) of 8.85%, a residual activity (SRMS (human)) of 102% and a residual activity (STK16 (human)) of 12.7%. For the same compound, the residual activity (STK17A (human)) was 22.5%, the residual activity (TAOK1 (human)) was 98.2% and the residual activity (TBK1 (human)) was 29.9%. For the same compound, the residual activity (TEC (human)) was 101%, the residual activity (TNK2 (human)) was 4.93% and the residual activity (TTK (human)) was 46.1%. It also gave a residual activity (ULK1 (human)) of 98.3% and a residual activity (ZAP70 (human)) of 97.8%.
